Data published in patent publication US20250108048A1, “STING AGONIST COMPOUNDS AND CONJUGATES” (SUTRO BIOPHARMA, INC., priority 2023, published 2025).
pEC50, pIC50, pKd: −log10 of the molar value. Read-outs that look alike come from different tables or passages of the source.

Legend:
hSTING-R232 = target: T1, hSTING-R232 (Homo sapiens, UniProt Q86WV6, H232R); assay: THP1-Dual KI-hSTING-R232 reporter assay (IRF pathway, secreted Lucia luciferase); assay type: cell-based; settings: THP1-Dual KI-hSTING-R232 cells, 24 hours; read-out: Reporter assay EC50 (nM) THP-1-R232
T1 construct: host or cells: THP1-Dual KI-hSTING-R232 (from THP1-Dual KO-STING)

hSTING H232 [1] = target: T2, hSTING H232 (Homo sapiens, UniProt Q86WV6); assay: Surface plasmon resonance, hSTING H232; assay type: binding; settings: read-out: hSTING H232 SPR (Kd)
mSTING = target: T3, mSTING (Mus musculus, UniProt Q3TBT3); assay: 293-mSTING reporter assay; assay type: cell-based
T3 sequence (Q3TBT3 1-378): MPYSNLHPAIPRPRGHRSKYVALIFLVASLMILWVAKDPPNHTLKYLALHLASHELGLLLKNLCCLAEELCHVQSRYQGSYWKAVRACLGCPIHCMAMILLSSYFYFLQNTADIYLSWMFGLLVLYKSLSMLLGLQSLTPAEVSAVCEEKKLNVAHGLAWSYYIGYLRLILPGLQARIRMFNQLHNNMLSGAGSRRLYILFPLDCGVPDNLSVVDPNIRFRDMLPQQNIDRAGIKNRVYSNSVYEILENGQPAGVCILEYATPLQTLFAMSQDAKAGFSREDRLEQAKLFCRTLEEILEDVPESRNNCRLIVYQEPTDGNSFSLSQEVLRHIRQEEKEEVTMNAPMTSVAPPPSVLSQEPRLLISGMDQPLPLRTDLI

hSTING WT = hSTING WT (Homo sapiens, UniProt Q86WV6); assay: Surface plasmon resonance, hSTING WT; assay type: binding; settings: read-out: hSTING WT SPR (Kd)
hSTING AQ = hSTING AQ (Homo sapiens, UniProt Q86WV6, G230A/H232R/R293Q); assay: Surface plasmon resonance, hSTING AQ; assay type: binding; settings: read-out: hSTING AQ SPR (Kd)
hSTING H232 [2] = target: T2, hSTING H232; assay: THP1-Dual KI-hSTING-H232 reporter assay (IRF pathway, secreted Lucia luciferase); assay type: cell-based; design: host or cells: THP1-Dual KI-hSTING-H232 (from THP1-Dual KO-STING); settings: THP1-Dual KI-hSTING-H232 cells, 24 hours; read-out: Reporter assay EC50 (nM) THP-1-H232
NCI-H292 cells = assay: Immunogenic cell death markers (HMGB1 release, surface calreticulin); assay type: cell-based, human; settings: 48 hours; for pEC50: Homo sapiens
Procedure: Immunogenic cell death elicited by the TROP2 ADC, iSAC, and exatecan were measured by cell surface translocate of calreticulin and release of HMGB1 in the cell culture supernatant. Briefly, TROP2 positive cell line NCI-H292 were seeded into a 96-well flat bottom plate 4 hours prior to the initialization of the assay. Test articles were formulated at a 2× starting concentration in cell culture medium, and samples were serial diluted (1:3) under sterile conditions and added onto the cells in duplicates. After incubation at 37° C. in a CO2 incubator for 48 hours, the cell supernatant was collected for measuring HMGB1 and the adherent cells were collected for calreticulin expression on the cell surface.
HMGB1 released in the supernatant was assessed via sandwich ELISA using mouse anti-human HMGB1 clone 2F6 (Sigma-Aldrich) as the capture, polyclonal rabbit anti-human HMGB1 (Abcam) as secondary, and polyclonal goat anti-rabbit IgG HRP as the detection antibody. The HMGB1 concentrations in the cell culture medium were calculated based a standard curve built on commercially available recombinant human HMGB1 (R&D Systems).
NCI-H292 cells were detached using Accutase (Innovative Cell Technologies) and viability was accessed using a 1:500 dilution of Zombie NIR viability dye. […] Surface calreticulin measures on the live cells were gathered using an Attune NXT Flow Cytometer (ThermoFisher Scientific) to obtain median fluorescence intensity values. All data were fitted with non-linear regression analysis, using log(agonist) vs. response, variable slope, 4 parameter fit equation using GraphPad Prism.

hSTING-HAQ haplotype = target: T4, hSTING-HAQ haplotype (Homo sapiens, UniProt Q86WV6, G230A/H232R/R293Q/R71H); assay: THP-1-Dual reporter assay (endogenous hSTING-HAQ); assay type: cell-based; settings: THP-1-Dual cells (hSTING-HAQ), 24 hours
T4 construct: host or cells: THP-1-Dual

[3] = system: TROP2 positive NCI-H292 Cells; assay: Cytokine release from cancer cells (MSD); assay type: cell-based, human; settings: 120 hours; for pEC50: Homo sapiens
Procedure: The cell supernatant was collected and IP-10 and IL-6 released in the cell culture medium was measured using Streptavidin single spot 96 well plates, compatible human antibody pairs, and calibrating solutions commercially available from MesoScale Discovery. Raw data generated by the Meso Scale Discovery (MSD®) SQ120 plate reader was imported into MSD Discovery Workbench software. Unknown sample values were interpolated from standard curves by the software and imported into Graphpad Prism. Each cytokine level was fitted with non-linear regression analysis, using log (agonist) vs. response, variable slope, 4-parameter fit equation in GraphPad Prism.

[4] = system: TROP2 negative NCI-H460 cells; assay: NCI-H460/PBMC co-culture: cancer cell count; assay type: cell-based, human; settings: Table 10
Procedure: (§1) For the co-culture assay, cancer cells were plated on transparent flat bottom polystyrene plates and allowed to attach overnight. On the next day, serially diluted (1:4) test articles were formulated at 3× starting concentration in complete RPMI media and added onto each well. Human PBMCs were thawed and resuspended in RPMI supplemented with 10% heat-inactivated fetal bovine serum from Hyclone, 1% Penicillin/Streptomycin and 2 mmol/L-glutamax. PBMCs were then added into the same well at a final ratio of PBMCs:cancer cells =30:1. Plates were incubated for 2 or 3 days at 37° C. with 5% CO2 in a cell culture incubator.
(§2) On the day of sample collection, cell culture supernatants were collected and stored at −80° C. until cytokine release analyses were performed. […] After incubation on ice for 1 hour, cells were washed with FACS buffer and fixed with 50 ul/well of 2% PFA (paraformaldehyde) for 20 minutes. Cells were then washed with FACS buffer again and read on Cytek flow cytometer. FACS data analysis was done by Flowjo software to identifymonocytes, B cells, CD4+ T cells, CD8+ T cells, NK cells and Dendritic cells and their activation status. Data from Flowjo was exported and plotted using non-linear regression analysis, log (agonist/inhibitor) vs. response, variable slope, 4-parameter fit equation in GraphPad Prism. […]

NCI-H441 = assay: NCI-H441/PBMC co-culture: cancer cell count; assay type: cell-based, human; settings: Table 9
Procedure: as §1, §2

[5] = sandwich ELISA, read-out: HMGB-1 Release EC50

T2 sequence (Q86WV6 whole entry): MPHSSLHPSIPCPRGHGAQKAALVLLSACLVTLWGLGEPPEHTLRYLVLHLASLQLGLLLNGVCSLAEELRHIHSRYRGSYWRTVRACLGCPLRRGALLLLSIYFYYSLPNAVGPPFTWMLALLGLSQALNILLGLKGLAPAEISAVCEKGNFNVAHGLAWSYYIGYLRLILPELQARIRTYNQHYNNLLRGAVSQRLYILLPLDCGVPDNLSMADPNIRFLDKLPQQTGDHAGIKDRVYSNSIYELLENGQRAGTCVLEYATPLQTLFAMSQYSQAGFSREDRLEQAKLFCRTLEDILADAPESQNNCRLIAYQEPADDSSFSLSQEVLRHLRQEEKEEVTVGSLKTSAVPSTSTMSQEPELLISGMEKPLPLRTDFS
hSTING AQ, sequence (Q86WV6 whole entry G230A/H232R/R293Q): as the sequence (Q86WV6 whole entry) above, with G230A, H232R, R293Q counted along it
T4 sequence (Q86WV6 whole entry R71H/G230A/H232R/R293Q): as the sequence (Q86WV6 whole entry) above, with R71H, G230A, H232R, R293Q counted along it
T1 sequence (Q86WV6 whole entry H232R): as the sequence (Q86WV6 whole entry) above, with H232R counted along it
hSTING WT, sequence (Q86WV6 whole entry H232R): as the sequence (Q86WV6 whole entry) above, with H232R counted along it

SMILES | EC50 (hSTING-R232) [nM] | pKd (hSTING H232 [1]) | EC50 (mSTING) [nM] | pKd (hSTING WT) | pKd (hSTING AQ) | EC50 (hSTING H232 [2]) [nM] | HMGB-1 Release Span (NCI-H292 cells) [ng/mL] | pEC50 (NCI-H292 cells; [5]) | EC50 (hSTING-HAQ haplotype) [nM] | IL-6 Release Span [3] [pg/mL] | IP-10 Release Span [3] [pg/mL] | pEC50 ([3]; read-out: IL-6 Release EC50) | pEC50 ([3]; read-out: IP-10 Release EC50) | pIC50 ([4]; Homo sapiens, NCI-H460/PBMC co-culture (TROP2 negative)) | Cancer Cell Count Span (Cell Count) ([4]; NCI-H460/PBMC co-culture) | pIC50 (NCI-H441; Homo sapiens) | Cancer Cell Count Span (Cell Count) (NCI-H441) | Calreticulin Span (MFI) (NCI-H292 cells) | pEC50 (NCI-H292 cells; surface calreticulin on live cells, read-out: Calreticulin EC50)
CCn1nc(C)cc1C(=O)Nc1nc2cc(C(N)=O)ccc2n1C/C=C/Cn1c(NC(=O)c2cc(C)nn2CC)nc2cc(C(N)=O)cc(OCCCN3CC4(CNCCO4)C3)c21 [Compound 1] | ≤ 50 | ≥ 7.70 | > 150 | ≥ 7.70 | ≥ 7.70 | ≤ 50 | 17 | 8.22 | ≤ 50 | >10000 | >4000 | < 7.00 | < 7.00 | – | – | – | – | – | –
CC[C@@]1(O)C(=O)OCc2c1cc1n(c2=O)Cc2c-1nc1cc(F)c(C)c3c1c2[C@@H](N)CC3 [Exatecan, reference compound] | – | – | – | – | – | – | 55 | 8.68 | – | 1410 | 203 | 7.83 | 9.06 | 9.42 | 23,530 Cell Count | 9.36 | 5,749 Cell Count | 783 | 9.72
CCn1nc(C)cc1C(=O)Nc1nc2cc(C(N)=O)ccc2n1C/C=C/Cn1c(NC(=O)c2cc(C)nn2CC)nc2cc(C(N)=O)cc(OCCCN3CC4(C3)CN(C(=O)CON)CCO4)c21 [LP-1-1, 7-[3-[8-(2-aminooxyacetyl)-5-oxa-2,8-diazaspiro[3.5]nonan-2-yl]propoxy]-1-[(E)-4-[5-carbamoyl-2-[(2-ethyl-5-methyl-pyrazole-3-carbonyl)amino]benzimidazol-1-yl]but-2-enyl]-2-[(2-ethyl-5-methyl-pyrazole-3-carbonyl)amino]benzimidazole-5-carboxamide] | > 150 | ≥ 7.70 | > 150 | ≥ 7.70 | ≥ 7.70 | > 150 | – | – | 50 to 150 | – | – | – | – | – | – | – | – | – | –
